This note sets out measurements from patent publication US20260273072A1, “NOVEL PLK1 DEGRADATION INDUCING COMPOUND” (UPPTHERA, INC., priority 2023, published 2026).

Molecules are shown by their SMILES.

Common to all, as to format: cell-based
One assay relates to MRC-5 cell line. Briefly: Cell viability assay for MRC-5 cell line (EZ-Cytox). The settings on record: Homo sapiens, MRC5, 120 h; MRC-5 normal cell line, 5 days, 10000 nM to 1.52 nM; read-out: Activity: IC50 value, cell viability, MRC-5 cell line (Exemplary Compounds). The method, then: 4. Cell Viability Assay for MRC-5 Cell Line
(1) Culture of MRC-5 Cell Line
The MRC-5 cell line was purchased from KCLB. Passage of cultured cells was maintained within P15.
(2) Treatment of Compounds of the Present Invention
Then, it was cultured in 37° C. CO2 incubator (Thermo Fisher Scientific) for 5 days.
(3) Cytotoxicity Experiment
CO2 incubator for 4 hours.

The target in a further assay is T1, PLK1 (Homo sapiens, UniProt P53350).
T1 construct: endogenous in cells; host or cells: HeLa LgBit (Plk1-HiBit KI): HeLa stably expressing LgBit, with a CRISPR/Cas9 knock-in of HiBit at the endogenous PLK1 locus
T1 sequence (P53350 whole entry): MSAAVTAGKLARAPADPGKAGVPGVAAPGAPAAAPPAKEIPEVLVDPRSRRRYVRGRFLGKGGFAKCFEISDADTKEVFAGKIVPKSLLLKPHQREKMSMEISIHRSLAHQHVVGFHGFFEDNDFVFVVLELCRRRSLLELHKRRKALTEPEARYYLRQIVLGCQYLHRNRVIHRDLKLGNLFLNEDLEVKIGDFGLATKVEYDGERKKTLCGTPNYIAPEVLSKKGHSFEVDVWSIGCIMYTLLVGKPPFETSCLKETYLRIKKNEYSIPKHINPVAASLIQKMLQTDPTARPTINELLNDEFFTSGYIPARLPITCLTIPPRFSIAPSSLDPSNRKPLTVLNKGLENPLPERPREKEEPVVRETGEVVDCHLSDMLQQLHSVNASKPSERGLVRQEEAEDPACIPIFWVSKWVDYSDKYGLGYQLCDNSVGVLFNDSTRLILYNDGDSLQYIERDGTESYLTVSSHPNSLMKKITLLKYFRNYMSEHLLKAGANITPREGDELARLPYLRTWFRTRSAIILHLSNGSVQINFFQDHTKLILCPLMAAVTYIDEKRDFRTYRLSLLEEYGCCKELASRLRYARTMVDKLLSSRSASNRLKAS
Briefly: Luciferase assay for PLK1 in HeLa LgBit (Plk1-HiBit KI) cell line. The following applies: 300 nM compound, luminescence after 9 hours. The method, then:
2. Luciferase Assay for PLK1
(1) Preparation and Culture of HeLa LgBit (Plk1-HiBit KI) Cell Line
A HeLa cell line in which the LgBit vector was transfected and expressed stably was prepared. Then, after constructing gRNA and donor to express the HiBit amino acid sequence behind the C-terminal of the PLK1 gene, which was inherent in the cell, it was inserted into the cell together with a vector capable of expressing CRISPR/Cas9. Only the cells in which the insertion was completed and knock-in had progressed were selected, sub-cultured and used.
For cell culture, DMEM (Gibco), FBS (Gibco), PS (Gibco), […] cell culture dish (SPL), […] cell culture dish (SPL), 96-well culture plate (SPL), PBS pH 7.4 (Gibco), TrypLE™ Express (Gibco), Cell counter (Thermo Fisher Scientific) and 0.4% Trypan Blue Solution (DYNEBIO) were used.
(2) Treatment of Compounds of the Present Invention and Method of Luciferase Assay
In the case of HeLa LgBit (Plk1-HiBit KI), the compounds were treated after being released after thymidine block, and the process was as follows. Thymidine (Sigma-Aldrich) was completely dissolved in ddH2O and used in the experiment. For thymidine block, the products were treated with 2 mM of thymidine and then incubated for 24 hours. For release and chemical treatment, the medium was suctioned and washed with 1×PBS. TrypLE™ (Gibco) was added and incubated in 37° C. CO2 incubator (Thermo Fisher Scientific) for 5 mins. Cells neutralized by adding complete media were counted through a counter. For each well of a 96-well culture plate (SPL), 3.3×10^4 cells and a total medium volume of 150 μl were seeded and incubated in a CO2 incubator.
Each cell line was incubated in a CO2 incubator for 18 hours, and Endurazine (Promega, Cat. No. N257B) was added to each well to make up 4% of the total volume. After adding compounds of Examples in a 96-well white plate (SPL) to a concentration of 300 nM, the wavelength of the plate reader (BMG Labtech, CLARIOstar Plus) was set to 470-480 nm, and then the luminescence was tracked in real time.
In Table 2, Activity represents the ratio of the luminescence value of each Exemplary Compound treatment group to DMSO treatment group (+++: <0.3, ++: <0.5, +: <0.7).
A general note: With HiBiT, luminescence reflects the tagged protein that the partner subunit can reach.

A further assay deals with NCI-H526 cell line. Nature of the assay: Cell viability assay for NCI-H526 cell line (EZ-Cytox). The settings on record: Homo sapiens, NCI-H526, 120 h; H526 cells, 5 days, 3000 nM to 0.46 nM. The method, then:
(§1) 3. Cell Viability Assay for NCI-H69, NCI-H526 Cell Lines
(§2) (1) Culture of NCI-H69, NCI-H526 Cell Lines
(§3) The NCI-H69 (hereafter H69) and NCI-H526 (hereafter H526) cell lines were purchased from KCLB.
(§4) (2) Treatment of Compounds of the Present Invention and Method of Cell Viability Assay
(§5) After treating the compound to each well to make the total volume of 200 μl, it was cultured in a CO2 incubator (Thermo Fisher Scientific) for 5 days. […] The absorbance of the completely cultured sample was measured by setting the wavelength of a plate reader (BMG Labtech) to […], and was measured after shaking for 3 minutes in a plate reader before measurement.
(§6) The results of cell viability for H526 and H69 cell line are shown in Table 3 and Table 4, respectively.
(§7) In Table 3 and Table 4, Activity represents IC50 value of each Exemplary Compound treatment group to H526 and H69 cell line, respectively (A: <30 nM, B: <50 nM, C: <100 nM, D: <200 nM, E: <400 nM).

For another assay, the system named is NCI-H69 cell line. Nature of the assay: Cell viability assay for NCI-H69 cell line (EZ-Cytox). The following applies: Homo sapiens, NCI-H69, 120 h; H69 cells, 5 days, 3000 nM to 0.46 nM. The method, then:
as §1, §2, §3, §4, §5, §6, §7

Regarding `COc1cc(C(=O)NC2CCC(N(C)CC3CCN(c4cnc(C5CCC(=O)NC5=O)cc4C)CC3)CC2)ccc1Nc1ncc2c(n1)N(C1CCCC1)CC(F)(F)C(=O)N2C` (stereo not drawn) [Compound 14, 4-((9-cyclopentyl-7,7-difluoro-5-methyl-6-oxo-6,7,8,9-tetrahydro-5H-pyrimido[4,5-b][1,4]diazepin-2-yl)amino)-N-((1r,4r)-4-(((1-(6-(2,6-dioxopiperidin-3-yl)-4-methylpyridin-3-yl)piperidin-4-yl)methyl)(methyl)amino)cyclohexyl)-3-methoxybenzamide], the IC50 is > 10000 nM in the assay with MRC-5 cell line, < 30 nM in the assay on NCI-H526 cell line and < 30 nM in the assay with NCI-H69 cell line. At PLK1, the “Activity: ratio of the luminescence value of compound treatment group to DMSO treatment group” value (shortened to “Activity: ratio”) was “+++ (+++: <0.3)”.
Turning to `COc1cc(C(=O)NC2CCC(N(C)CC3CCN(c4cnc(C5CCC(=O)NC5=O)cc4C)CC3)CC2)ccc1Nc1ncc2c(n1)N(C(C)C)CC(F)(F)C(=O)N2C` (stereo not drawn) [Compound 15, 4-((7,7-difluoro-9-isopropyl-5-methyl-6-oxo-6,7,8,9-tetrahydro-5H-pyrimido[4,5-b][1,4]diazepin-2-yl)amino)-N-((1r,4r)-4-(((1-(6-(2,6-dioxopiperidin-3-yl)-4-methylpyridin-3-yl)piperidin-4-yl)methyl)(methyl)amino)cyclohexyl)-3-methoxybenzamide], the concentration for half-maximal inhibition (IC50) in the assay with MRC-5 cell line was > 10000 nM; in the assay with NCI-H526 cell line, < 30 nM; in the assay with NCI-H69 cell line, < 30 nM. Further, on PLK1, the “Activity: ratio” value is on record as “+++ (+++: <0.3)”.
On to `COc1cc(C(=O)N[C@H]2CC[C@H](CN(C)C3CCN(c4cnc(C5CCC(=O)NC5=O)cc4C)CC3)CC2)ccc1Nc1ncc2c(n1)N(C(C)C)CC(F)(F)C(=O)N2C` (stereo partly drawn) [Compound 16, 4-((7,7-difluoro-9-isopropyl-5-methyl-6-oxo-6,7,8,9-tetrahydro-5H-pyrimido[4,5-b][1,4]diazepin-2-yl)amino)-N-((1r,4r)-4-(((1-(6-(2,6-dioxopiperidin-3-yl)-4-methylpyridin-3-yl)piperidin-4-yl)(methyl)amino)methyl)cyclohexyl)-3-methoxybenzamide], for which the values for the IC50 in the assay on MRC-5 cell line, with NCI-H526 cell line and with NCI-H69 cell line were > 10000 nM, < 30 nM and < 30 nM, respectively. In addition, on PLK1, the “Activity: ratio” value is “+++ (+++: <0.3)”.
`COc1cc(C(=O)NC2CC3(CCN(CC4CCN(c5cnc(C6CCC(=O)NC6=O)cc5C)CC4)CC3)C2)ccc1Nc1ncc2c(n1)N(C1CCCC1)CC(F)(F)C(=O)N2C` (stereo not drawn) [Compound 17, 4-((9-cyclopentyl-7,7-difluoro-5-methyl-6-oxo-6,7,8,9-tetrahydro-5H-pyrimido[4,5-b][1,4]diazepin-2-yl)amino)-N-(7-((1-(6-(2,6-dioxopiperidin-3-yl)-4-methylpyridin-3-yl)piperidin-4-yl)methyl)-7-azaspiro[3.5]nonan-2-yl)-3-methoxybenzamide]: the results for the 50% inhibitory concentration (IC50) in the assay with MRC-5 cell line, in the assay on NCI-H526 cell line and with NCI-H69 cell line were > 10000 nM, < 30 nM and < 30 nM, respectively. At PLK1, the “Activity: ratio” value was “+++ (+++: <0.3)”.
As for `COc1cc(C(=O)NC2CC3(CCN(CC4CCN(c5ccc(C6CCC(=O)NC6=O)nc5C)CC4)CC3)C2)ccc1Nc1ncc2c(n1)N(C1CCCC1)CC(F)(F)C(=O)N2C` (stereo not drawn) [Compound 18, 4-((9-cyclopentyl-7,7-difluoro-5-methyl-6-oxo-6,7,8,9-tetrahydro-5H-pyrimido[4,5-b][1,4]diazepin-2-yl)amino)-N-(7-((1-(6-(2,6-dioxopiperidin-3-yl)-2-methylpyridin-3-yl)piperidin-4-yl)methyl)-7-azaspiro[3.5]nonan-2-yl)-3-methoxybenzamide], the half-inhibitory concentration (IC50) in the assay on MRC-5 cell line was > 10000 nM; in the assay with NCI-H526 cell line it was < 30 nM; in the assay on NCI-H69 cell line, < 30 nM. For the same compound, the “Activity: ratio” value at PLK1 is on record as “++ (++: <0.5)”.
Regarding `COc1cc(C(=O)NC2CC3(CCN(CC4CCN(c5cnc(C6CCC(=O)NC6=O)cc5C)CC4)CC3)C2)ccc1Nc1ncc2c(n1)N(C(C)C)CC(F)(F)C(=O)N2C` (stereo not drawn) [Compound 19, 4-((7,7-difluoro-9-isopropyl-5-methyl-6-oxo-6,7,8,9-tetrahydro-5H-pyrimido[4,5-b][1,4]diazepin-2-yl)amino)-N-(7-((1-(6-(2,6-dioxopiperidin-3-yl)-4-methylpyridin-3-yl)piperidin-4-yl)methyl)-7-azaspiro[3.5]nonan-2-yl)-3-methoxybenzamide], the IC50 in the assay on MRC-5 cell line was > 10000 nM; with NCI-H526 cell line, < 30 nM; in the assay with NCI-H69 cell line it was < 30 nM. On PLK1, the “Activity: ratio” value was “++ (++: <0.5)”.
`COc1cc(C(=O)NC2CCC(N(C)CC3CCN(c4cnc(C5CCC(=O)NC5=O)cc4F)CC3)CC2)ccc1Nc1ncc2c(n1)N(C1CCCC1)CC(F)(F)C(=O)N2C` (stereo not drawn) [Compound 20, 4-((9-cyclopentyl-7,7-difluoro-5-methyl-6-oxo-6,7,8,9-tetrahydro-5H-pyrimido[4,5-b][1,4]diazepin-2-yl)amino)-N-((1r,4r)-4-(((1-(6-(2,6-dioxopiperidin-3-yl)-4-fluoropyridin-3-yl)piperidin-4-yl)methyl)(methyl)amino)cyclohexyl)-3-methoxybenzamide]: the IC50 in the assay with MRC-5 cell line is > 10000 nM; with NCI-H526 cell line it was < 30 nM; with NCI-H69 cell line, < 30 nM. On PLK1, the “Activity: ratio” value was “+++ (+++: <0.3)”.
For `COc1cc(C(=O)NN2CCC(CCN3CCN(c4cnc(C5CCC(=O)NC5=O)cc4F)CC3)CC2)ccc1Nc1ncc2c(n1)N(C(C)C)CC(F)(F)C(=O)N2C` (stereo not drawn) [Compound 21, 4-((7,7-difluoro-9-isopropyl-5-methyl-6-oxo-6,7,8,9-tetrahydro-5H-pyrimido[4,5-b][1,4]diazepin-2-yl)amino)-N-(4-(2-(4-(6-(2,6-dioxopiperidin-3-yl)-4-fluoropyridin-3-yl)piperazin-1-yl)ethyl)piperidin-1-yl)-3-methoxybenzamide], the figures for the IC50 in the assay with MRC-5 cell line, in the assay on NCI-H526 cell line and with NCI-H69 cell line were > 10000 nM, < 30 nM and < 30 nM, respectively. Moreover, on PLK1, the “Activity: ratio” value is reported as “+++ (+++: <0.3)”.
Turning to `COc1cc(C(=O)N[C@H]2C3CN(CC4CCN(c5ccc(NC6CCC(=O)NC6=O)cc5)CC4)C[C@@H]32)ccc1Nc1ncc2c(n1)N(C(C)C)CC(F)(F)C(=O)N2C` (stereo partly drawn) [Compound 22, 4-((7,7-difluoro-9-isopropyl-5-methyl-6-oxo-6,7,8,9-tetrahydro-5H-pyrimido[4,5-b][1,4]diazepin-2-yl)amino)-N-((1R,5S,6s)-3-((1-(4-((2,6-dioxopiperidin-3-yl)amino)phenyl)piperidin-4-yl)methyl)-3-azabicyclo[3.1.0]hexan-6-yl)-3-methoxybenzamide], the IC50 in the assay with MRC-5 cell line was > 10000 nM; in the assay on NCI-H526 cell line, < 50 nM; in the assay on NCI-H69 cell line it was < 50 nM. In addition, the “Activity: ratio” value at PLK1 was “+++ (+++: <0.3)”.

As a reminder, the IC50 is the concentration that gives 50% inhibition.
